{
  "source": "patent US6235891A",
  "about": "“Glucocorticoid receptor agonist and decreased PP5” (South Alabama Medical Science Foundation, priority 1999, dated 2001)",
  "test_system": "glucocorticoid receptor (GR) binding to DNA",
  "test": "Gel mobility shift assay of GR binding to GRE DNA, A549 nuclear extracts",
  "type": "cell-based, human",
  "conditions": "300 nM ISIS 15534 compared with 1 μM dexamethasone",
  "method": "Nuclear extracts and gel mobility shift assays were conducted as previously described (Li et al. 1991) with slight modifications (Zuo et al. 1998). Briefly, A549 cells were cultured in 60 mm dishes and treated with ISIS 15521 or ISIS 15534 antisense oligonucleotides (Zuo et al. 1998) three dishes per group. Six hours after treatment, the cells were collected, washed with ice-cold PBS, and incubated in buffer A (10 mM HEPES, pH 7.9, 10 mM KCl, 0.1 mM EDTA, 0.1 mM EGTA, 1 mM DTT, 0.5 mM PMSF) at 4° C. for 15 minutes. The cells were then lysed by adding 25 μl 10% NP-40 and vigorous vortexing for 10 seconds. Nuclei were precipitated by centrifugation, resuspended in ice-cold buffer B (20 mM HEPES, pH 7.9, 0.4 M NaCl, 1 mM EDTA, 1 mM EGTA, 1 mM DTT, 1 mM PMSF), incubated at 4° C. for 60 minutes with gentle shaking, and then subjected to centrifugation at 4° C. for 5 minutes. The supernatant was collected, aliquoted, and stored at -80° C. […]\nReferring to FIG. 3A, the inhibition of PP5 expression enhances glucocorticoid receptor binding to DNA. […] The relative light units of the cell extract were calculated as an average of three independent experiments, performed in triplicate, and presented as relative luciferase activity with error bars indicating SD. […]",
  "data": [
    {"substance": "ISIS 15534: chimeric PP5 antisense oligonucleotide, P=O wings, P=S deoxy gap; GGGCCCTATTGCTTGAGTGG, SEQ ID NO: 12 (sugars by position and backbone not given here; chimeric, phosphodiester wings, phosphorothioate deoxy gap)", "values": [
      {"measurement": "GR/GRE gel shift", "value": "more pronounced shift"}
    ]}
  ]
}
